Assay results taken from US9663519B2, “Compounds useful as inhibitors of ATR kinase” (Vertex Pharmaceuticals Incorporated, priority 2013, dated 2017).

What was measured:
[1] = molecular target: full-length ATR (Homo sapiens (Human), UniProt Q13535); experiment: ATR Inhibition Assay (radioactive-phosphate incorporation); format: biochemical; settings: Ki(app); 5 nM full-length ATR, 10 μM ATP, 25° C.
Protocol: Compounds were screened for their ability to inhibit ATR kinase using a radioactive-phosphate incorporation assay. Assays were carried out in a mixture of 50 mM Tris/HCl (pH 7.5), 10 mM MgCl2 and 1 mM DTT. Final substrate concentrations were 10 μM [γ-33P]ATP (3 mCi 33P ATP/mmol ATP, Perkin Elmer) and 800 μM target peptide (ASELPASQPQPFSAKKK (SEQ. ID NO: 1)).
Assays were carried out at 25° C. in the presence of 5 nM full-length ATR. An assay stock buffer solution was prepared containing all of the reagents listed above, with the exception of ATP and the test compound of interest. 13.5 μL of the stock solution was placed in a 96 well plate followed by addition of 2 μL of DMSO stock containing serial dilutions of the test compound (typically starting from a final concentration of 15 μM with 3-fold serial dilutions) in duplicate (final DMSO concentration 7%). The plate was pre-incubated for 10 minutes at 25° C. and the reaction initiated by addition of 15 μL [γ-33P]ATP (final concentration 10 μM).
The reaction was stopped after […] by the addition of 30 μL 0.1M phosphoric acid containing 2 mM ATP. A multiscreen phosphocellulose filter 96-well plate (Millipore, Cat no. MAPHN0B50) was pretreated with 100 μL 0.2M phosphoric acid prior to the addition of 45 μL of the stopped assay mixture. The plate was washed with 5×200 μL 0.2M phosphoric acid. After drying, 100 μL Optiphase ‘SuperMix’ liquid scintillation cocktail (Perkin Elmer) was added to the well prior to scintillation counting (1450 Microbeta Liquid Scintillation Counter, Wallac).
After removing mean background values for all of the data points, Ki(app) data were calculated from non-linear regression analysis of the initial rate data using the Prism software package (GraphPad Prism version 3.0cx for Macintosh, GraphPad Software, San Diego Calif., USA).

[2] = system: HCT116 colorectal cancer cells; experiment: Cisplatin Sensitization Assay (96 h cell viability MTS); format: cell-based; settings: Cisplatin sensitization value: concentration of compound required to reduce the IC50 of Cisplatin alone by at least 3-fold; HCT116, 96 h MTS
Protocol: Compounds can be screened for their ability to sensitize HCT116 colorectal cancer cells to Cisplatin using a 96 h cell viability (MTS) assay. […] Compounds and Cisplatin are then both added simultaneously to the cell media in 2-fold serial dilutions from a top final concentration of 10 μM as a full matrix of concentrations in a final cell volume of 200 μl, and the cells are then incubated at 37° C. in 5% CO2. After 96 h, 40 μl of MTS reagent (Promega G358a) is added to each well and the cells are incubated for 1 h at 37° C. in 5% CO2. Finally, absorbance is measured at 490 nm using a SpectraMax Plus 384 reader (Molecular Devices) and the concentration of compound required to reduce the IC50 of Cisplatin alone by at least 3-fold (to 1 decimal place) can be reported.

full-length ATR, sequence (Q13535 whole entry): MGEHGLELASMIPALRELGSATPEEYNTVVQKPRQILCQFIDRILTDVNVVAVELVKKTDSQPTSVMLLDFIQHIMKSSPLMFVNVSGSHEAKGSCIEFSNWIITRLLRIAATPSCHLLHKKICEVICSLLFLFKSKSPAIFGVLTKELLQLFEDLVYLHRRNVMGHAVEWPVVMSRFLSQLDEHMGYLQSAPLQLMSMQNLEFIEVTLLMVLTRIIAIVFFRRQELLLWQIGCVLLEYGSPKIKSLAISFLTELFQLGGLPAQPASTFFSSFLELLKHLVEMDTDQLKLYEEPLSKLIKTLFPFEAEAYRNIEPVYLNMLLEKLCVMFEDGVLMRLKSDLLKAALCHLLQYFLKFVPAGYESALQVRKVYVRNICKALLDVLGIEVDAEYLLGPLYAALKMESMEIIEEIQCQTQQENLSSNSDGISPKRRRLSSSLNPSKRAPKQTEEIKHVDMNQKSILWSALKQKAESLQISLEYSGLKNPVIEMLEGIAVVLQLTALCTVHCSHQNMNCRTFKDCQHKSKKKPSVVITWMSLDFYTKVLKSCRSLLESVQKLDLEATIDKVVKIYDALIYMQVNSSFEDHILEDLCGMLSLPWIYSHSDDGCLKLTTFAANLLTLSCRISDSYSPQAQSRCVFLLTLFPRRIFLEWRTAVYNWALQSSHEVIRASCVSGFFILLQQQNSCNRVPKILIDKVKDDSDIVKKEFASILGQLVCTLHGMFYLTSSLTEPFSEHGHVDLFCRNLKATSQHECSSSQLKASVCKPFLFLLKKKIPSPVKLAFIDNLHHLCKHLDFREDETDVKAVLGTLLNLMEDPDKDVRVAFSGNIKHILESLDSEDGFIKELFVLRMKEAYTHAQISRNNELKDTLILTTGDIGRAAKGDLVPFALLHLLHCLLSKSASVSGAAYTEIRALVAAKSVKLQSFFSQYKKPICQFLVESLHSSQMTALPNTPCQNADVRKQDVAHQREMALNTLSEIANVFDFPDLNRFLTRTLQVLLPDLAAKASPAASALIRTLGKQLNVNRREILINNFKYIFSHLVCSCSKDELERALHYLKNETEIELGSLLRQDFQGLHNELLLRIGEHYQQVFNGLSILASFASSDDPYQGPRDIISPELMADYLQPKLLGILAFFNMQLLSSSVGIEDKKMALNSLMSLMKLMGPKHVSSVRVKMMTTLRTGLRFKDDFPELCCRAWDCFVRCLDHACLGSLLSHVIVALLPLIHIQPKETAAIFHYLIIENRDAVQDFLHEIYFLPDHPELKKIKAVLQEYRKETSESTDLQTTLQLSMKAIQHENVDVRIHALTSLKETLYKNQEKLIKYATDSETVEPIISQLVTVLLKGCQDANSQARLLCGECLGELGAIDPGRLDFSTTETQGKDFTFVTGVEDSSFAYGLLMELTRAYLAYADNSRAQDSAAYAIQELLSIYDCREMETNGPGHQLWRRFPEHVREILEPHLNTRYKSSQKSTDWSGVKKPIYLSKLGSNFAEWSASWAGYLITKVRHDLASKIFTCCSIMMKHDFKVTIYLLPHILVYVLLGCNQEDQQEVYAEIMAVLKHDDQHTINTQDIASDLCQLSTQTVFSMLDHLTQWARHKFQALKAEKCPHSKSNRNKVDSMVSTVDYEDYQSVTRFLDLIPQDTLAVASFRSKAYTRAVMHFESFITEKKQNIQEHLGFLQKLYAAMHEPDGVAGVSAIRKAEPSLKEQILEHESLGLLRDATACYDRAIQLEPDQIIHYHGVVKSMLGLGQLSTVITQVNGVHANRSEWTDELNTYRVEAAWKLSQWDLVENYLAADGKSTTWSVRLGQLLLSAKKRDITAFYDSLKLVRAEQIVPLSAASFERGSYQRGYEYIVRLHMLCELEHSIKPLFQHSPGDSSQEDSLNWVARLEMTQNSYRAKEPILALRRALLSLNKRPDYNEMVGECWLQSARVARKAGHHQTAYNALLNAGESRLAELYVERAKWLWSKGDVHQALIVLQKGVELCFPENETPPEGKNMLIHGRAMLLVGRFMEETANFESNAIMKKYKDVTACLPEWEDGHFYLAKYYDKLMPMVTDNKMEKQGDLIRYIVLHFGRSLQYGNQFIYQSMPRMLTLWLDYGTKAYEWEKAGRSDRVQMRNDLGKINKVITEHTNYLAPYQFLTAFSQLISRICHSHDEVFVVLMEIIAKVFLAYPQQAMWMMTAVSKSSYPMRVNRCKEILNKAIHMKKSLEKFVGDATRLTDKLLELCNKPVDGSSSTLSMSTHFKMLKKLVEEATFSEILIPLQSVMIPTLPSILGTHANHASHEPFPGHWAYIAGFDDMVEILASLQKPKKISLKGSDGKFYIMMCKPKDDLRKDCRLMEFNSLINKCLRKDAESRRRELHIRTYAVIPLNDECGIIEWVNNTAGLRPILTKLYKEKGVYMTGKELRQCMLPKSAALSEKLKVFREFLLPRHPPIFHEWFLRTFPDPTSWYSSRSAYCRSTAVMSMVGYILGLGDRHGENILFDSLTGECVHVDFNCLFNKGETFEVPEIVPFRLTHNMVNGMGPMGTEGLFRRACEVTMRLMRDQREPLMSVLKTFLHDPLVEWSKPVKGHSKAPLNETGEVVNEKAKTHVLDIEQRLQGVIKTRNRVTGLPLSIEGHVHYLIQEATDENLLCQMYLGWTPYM

Question: How did the Ki [1] turn out when `COc1ccncc1NC(=O)c1c(N)nn2cc3c(nc12)CCN(C1COC1)C3` [Compound I-24, 2-amino-N-(4-methoxypyridin-3-yl)-7-(oxetan-3-yl)-5,6,7,8-tetrahydropyrazolo[1,5-a]pyrido[4,3-d]pyrimidine-3-carboxamide] was run?
Answer: 10 to 1000 nM

Question: And the “Synergy with Cisplatin” value [2]?
Answer: ++ (Cisplatin sensitization value >0.02 μM but <0.2 μM)

Question: With `Cc1ccncc1NC(=O)c1c(N)nn2cc3c(nc12)CCN(C1COC1)C3` [Compound I-20, 2-amino-N-(4-methylpyridin-3-yl)-7-(oxetan-3-yl)-5,6,7,8-tetrahydropyrazolo[1,5-a]pyrido[4,3-d]pyrimidine-3-carboxamide] as the compound, how does the Ki [1] read?
Answer: 10 to 1000 nM

Question: What about the “Synergy with Cisplatin” value [2] of the same compound?
Answer: ++ (Cisplatin sensitization value >0.02 μM but <0.2 μM)

Question: For `COc1ccncc1NC(=O)c1c(N)nn2cc3c(nc12)CCN(C)C3` [Compound I-13, 2-amino-N-(4-methoxypyridin-3-yl)-7-methyl-5,6,7,8-tetrahydropyrazolo[1,5-a]pyrido[4,3-d]pyrimidine-3-carboxamide], which Ki [1] is on record?
Answer: 10 to 1000 nM

Question: And the “Synergy with Cisplatin” value [2]?
Answer: ++ (Cisplatin sensitization value >0.02 μM but <0.2 μM)

Question: `COCCN1CCc2nc3c(C(=O)Nc4cnccc4C4CC4)c(N)nn3cc2C1` [Compound I-28, 2-amino-N-(4-cyclopropylpyridin-3-yl)-7-(2-methoxyethyl)-5,6,7,8-tetrahydropyrazolo[1,5-a]pyrido[4,3-d]pyrimidine-3-carboxamide] was tested. Which Ki [1] did it give?
Answer: 10 to 1000 nM

Question: And the “Synergy with Cisplatin” value [2]?
Answer: ++ (Cisplatin sensitization value >0.02 μM but <0.2 μM)

Question: `CN1CCc2nc3c(C(=O)Nc4cnccc4OCC(F)(F)F)c(N)nn3cc2C1` [Compound I-30, 2-amino-7-methyl-N-(4-(2,2,2-trifluoroethoxy)pyridin-3-yl)-5,6,7,8-tetrahydropyrazolo[1,5-a]pyrido[4,3-d]pyrimidine-3-carboxamide] was tested. Which Ki [1] did it give?
Answer: 10 to 1000 nM

Question: And the “Synergy with Cisplatin” value [2]?
Answer: +++ (Cisplatin sensitization value of <0.02 μM)

Question: With `COc1ccncc1NC(=O)c1c(N)nn2cc3c(nc12)C(C)(C)CNC3` [Compound I-31, 2-amino-N-(4-methoxypyridin-3-yl)-5,5-dimethyl-5,6,7,8-tetrahydropyrazolo[1,5-a]pyrido[4,3-d]pyrimidine-3-carboxamide] as the compound, how does the Ki [1] read?
Answer: 10 to 1000 nM

Question: And the “Synergy with Cisplatin” value [2]?
Answer: ++ (Cisplatin sensitization value >0.02 μM but <0.2 μM)

Question: `COc1ccncc1NC(=O)c1c(N)nn2cc3c(nc12)CCN(C(C)C)C3` [Compound I-17, 2-amino-7-isopropyl-N-(4-methoxypyridin-3-yl)-5,6,7,8-tetrahydropyrazolo[1,5-a]pyrido[4,3-d]pyrimidine-3-carboxamide] was tested. Which Ki [1] did it give?
Answer: 10 to 1000 nM

Question: And the “Synergy with Cisplatin” value [2]?
Answer: ++ (Cisplatin sensitization value >0.02 μM but <0.2 μM)

Question: How did the Ki [1] turn out when `COc1cc(Cl)ncc1NC(=O)c1c(N)nn2cc3c(nc12)CCN(C)C3` [Compound I-7, 2-amino-N-(6-chloro-4-methoxypyridin-3-yl)-7-methyl-5,6,7,8-tetrahydropyrazolo[1,5-a]pyrido[4,3-d]pyrimidine-3-carboxamide] was run?
Answer: 10 to 1000 nM

Question: And the “Synergy with Cisplatin” value [2]?
Answer: ++ (Cisplatin sensitization value >0.02 μM but <0.2 μM)

Question: How did the Ki [1] turn out when `COc1ccncc1NC(=O)c1c(N)nn2cc3c(nc12)CCN(C(C)(C)C)C3` [Compound I-29, 2-amino-7-(tert-butyl)-N-(4-methoxypyridin-3-yl)-5,6,7,8-tetrahydropyrazolo[1,5-a]pyrido[4,3-d]pyrimidine-3-carboxamide] was run?
Answer: 10 to 1000 nM

Question: Which results are given for `COc1c(Cl)cncc1NC(=O)c1c(N)nn2cc3c(nc12)CCNC3` [Compound I-5, 2-amino-N-(5-chloro-4-methoxypyridin-3-yl)-5,6,7,8-tetrahydropyrazolo[1,5-a]pyrido[4,3-d]pyrimidine-3-carboxamide]?
Answer: Ki [1]: 10 to 1000 nM; Synergy with Cisplatin [2]: ++ (Cisplatin sensitization value >0.02 μM but <0.2 μM)

Question: What does the source list for `COc1ncncc1NC(=O)c1c(N)nn2cc3c(nc12)CCN(C1COC1)C3` [Compound I-27, 2-amino-N-(4-methoxypyrimidin-5-yl)-7-(oxetan-3-yl)-5,6,7,8-tetrahydropyrazolo[1,5-a]pyrido[4,3-d]pyrimidine-3-carboxamide]?
Answer: Ki [1]: 10 to 1000 nM; Synergy with Cisplatin [2]: ++ (Cisplatin sensitization value >0.02 μM but <0.2 μM)

Question: Which Ki [1] does the source give for `COc1cc(Cl)ncc1NC(=O)c1c(N)nn2cc3c(nc12)CCN(C1COC1)C3` [Compound I-25, 2-amino-N-(6-chloro-4-methoxypyridin-3-yl)-7-(oxetan-3-yl)-5,6,7,8-tetrahydropyrazolo[1,5-a]pyrido[4,3-d]pyrimidine-3-carboxamide] here?
Answer: 10 to 1000 nM

Question: And the “Synergy with Cisplatin” value [2]?
Answer: ++ (Cisplatin sensitization value >0.02 μM but <0.2 μM)

Question: What does the source list for `Nc1nn2cc3c(nc2c1C(=O)Nc1cncnc1C1CC1)CCN(C1COC1)C3` [Compound I-26, 2-amino-N-(4-cyclopropylpyrimidin-5-yl)-7-(oxetan-3-yl)-5,6,7,8-tetrahydropyrazolo[1,5-a]pyrido[4,3-d]pyrimidine-3-carboxamide]?
Answer: Ki [1]: 1000 to 5000 nM; Synergy with Cisplatin [2]: + (Cisplatin sensitization value >0.2 μM but <5 μM)

Question: Which Ki [1] does the source give for `COc1cc(Cl)ncc1NC(=O)c1c(N)nn2cc3c(nc12)CCNC3` [Compound I-6, 2-amino-N-(6-chloro-4-methoxypyridin-3-yl)-5,6,7,8-tetrahydropyrazolo[1,5-a]pyrido[4,3-d]pyrimidine-3-carboxamide] here?
Answer: 10 to 1000 nM

Question: What about the “Synergy with Cisplatin” value [2] of the same compound?
Answer: ++ (Cisplatin sensitization value >0.02 μM but <0.2 μM)

Question: Which results are given for `CC(C)Oc1ncncc1NC(=O)c1c(N)nn2cc3c(nc12)CCNC3` [Compound I-10, 2-amino-N-(4-isopropoxypyrimidin-5-yl)-5,6,7,8-tetrahydropyrazolo[1,5-a]pyrido[4,3-d]pyrimidine-3-carboxamide]?
Answer: Ki [1]: 10 to 1000 nM; Synergy with Cisplatin [2]: ++ (Cisplatin sensitization value >0.02 μM but <0.2 μM)

Question: Which results are given for `Nc1nn2cc3c(nc2c1C(=O)Nc1cnccc1OC1CCOCC1)CCNC3` [Compound I-8, 2-amino-N-(4-((tetrahydro-2H-pyran-4-yl)oxy)pyridin-3-yl)-5,6,7,8-tetrahydropyrazolo[1,5-a]pyrido[4,3-d]pyrimidine-3-carboxamide]?
Answer: Ki [1]: 10 to 1000 nM; Synergy with Cisplatin [2]: ++ (Cisplatin sensitization value >0.02 μM but <0.2 μM)

Question: Which Ki [1] does the source give for `CN1CCc2nc3c(C(=O)Nc4cnccc4C4CC4)c(N)nn3cc2C1` [Compound I-11, 2-amino-N-(4-cyclopropylpyridin-3-yl)-7-methyl-5,6,7,8-tetrahydropyrazolo[1,5-a]pyrido[4,3-d]pyrimidine-3-carboxamide] here?
Answer: 10 to 1000 nM

Question: What about the “Synergy with Cisplatin” value [2] of the same compound?
Answer: +++ (Cisplatin sensitization value of <0.02 μM)

Question: `Cc1ccncc1NC(=O)c1c(N)nn2cc3c(nc12)CCNC3` [Compound I-1, 2-amino-N-(4-methylpyridin-3-yl)-5,6,7,8-tetrahydropyrazolo[1,5-a]pyrido[4,3-d]pyrimidine-3-carboxamide] was tested. Which Ki [1] did it give?
Answer: 10 to 1000 nM

Question: And the “Synergy with Cisplatin” value [2]?
Answer: ++ (Cisplatin sensitization value >0.02 μM but <0.2 μM)

Question: For `CN1CCc2nc3c(C(=O)Nc4cnccc4OC4COC4)c(N)nn3cc2C1` [Compound I-14, 2-amino-7-methyl-N-(4-(oxetan-3-yloxy)pyridin-3-yl)-5,6,7,8-tetrahydropyrazolo[1,5-a]pyrido[4,3-d]pyrimidine-3-carboxamide], which Ki [1] is on record?
Answer: 10 to 1000 nM

Question: And the “Synergy with Cisplatin” value [2]?
Answer: ++ (Cisplatin sensitization value >0.02 μM but <0.2 μM)

Question: With `CC(C)Oc1ccncc1NC(=O)c1c(N)nn2cc3c(nc12)CCNC3` [Compound I-3, 2-amino-N-(4-isopropoxypyridin-3-yl)-5,6,7,8-tetrahydropyrazolo[1,5-a]pyrido[4,3-d]pyrimidine-3-carboxamide] as the compound, how does the Ki [1] read?
Answer: 10 to 1000 nM

Question: What about the “Synergy with Cisplatin” value [2] of the same compound?
Answer: +++ (Cisplatin sensitization value of <0.02 μM)

Question: With `Cn1cncc1-c1ccncc1NC(=O)c1c(N)nn2cc3c(nc12)CCN(C1COC1)C3` [Compound I-32, 2-amino-N-(4-(1-methyl-1H-imidazol-5-yl)pyridin-3-yl)-7-(oxetan-3-yl)-5,6,7,8-tetrahydropyrazolo[1,5-a]pyrido[4,3-d]pyrimidine-3-carboxamide] as the compound, how does the Ki [1] read?
Answer: 10 to 1000 nM

Question: With `Nc1nn2cc3c(nc2c1C(=O)Nc1cnccc1-c1ccccc1)CCN(C1COC1)C3` [Compound I-23, 2-amino-7-(oxetan-3-yl)-N-(4-phenylpyridin-3-yl)-5,6,7,8-tetrahydropyrazolo[1,5-a]pyrido[4,3-d]pyrimidine-3-carboxamide] as the compound, how does the Ki [1] read?
Answer: 10 to 1000 nM
